According to patent US20230167127A1, “COMPOUNDS AND THEIR USE IN THE TREATMENT OF BACTERIAL INFECTION” (Hoffmann-La Roche Inc., priority 2020, published 2023):
Where a name gives a salt, the structure may show the parent alone.

tested on: Escherichia coli ATCC 25922; assay: 50% growth inhibitory concentration (IC50) determination, Iso-Sensitest broth dilution; format: cell-based; conditions: Escherichia coli, ATCC25922, 16 h, strain Escherichia coli ATCC 25922; 10-point broth dilution, optical density at 600 nm over 16 h; read-out: Escherichia coli growth inhibition IC50
Procedure, shortened: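 Growth was tracked as optical density at 600 nm every 20 minutes for 16 h at 35±2° C. Compounds from DMSO stocks were serially diluted twofold over 10 points (e.g. 50–0.097 μM final) in Iso-Sensitest broth. Inhibition computed in log-phase growth to give IC50.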

Row | Compound | IC50
1 | Cc1nccc2c1CC(CN1CCC3(CC1)CN(c1cnc4c(n1)NC(=O)CO4)C(=O)O3)C2 (stereo not shown) [Example 374, 6-[8-[(1-methyl-6,7-dihydro-5H-cyclopenta[c]pyridin-6-yl)methyl]-2-oxo-1-oxa-3,8-diazaspiro[4.5]decan-3-yl]-4H-pyrazino[2,3-b][1,4]oxazin-3-one] | 207 nM
2 | Cn1cc(COc2cc(C#N)c3c(c2)CC(CNCCC2CN(c4cnc5c(n4)NC(=O)CO5)C(=O)O2)C3)cn1 (stereo not shown) [Example 390, 6-[(1-methylpyrazol-4-yl)methoxy]-2-[[2-[2-oxo-3-(3-oxo-4H-pyrazino[2,3-b][1,4]oxazin-6-yl)-1,3-oxazolidin-5-yl]ethylamino]methyl]-2,3-dihydro-1H-indene-4-carbonitrile] | 161 nM
3 | NC1c2cccc(Cl)c2CC1CN1CCC2(CC1)CN(c1ccc3c(n1)NC(=O)CO3)C(=O)O2 (racemic) [Example 212, 6-[2-oxo-8-[[rac-1,2-trans-1-amino-4-chloro-2,3-dihydro-1H-inden-2-yl]methyl]-1-oxa-3,8-diazaspiro[4.5]decan-3-yl]-4H-pyrido[3,2-b][1,4]oxazin-3-one] | < 97.7 nM
4 | Cc1ncc(F)c2c1CC(CNCCc1nn(-c3ccc4c(c3)NC(=O)CO4)c(=O)o1)C2 (stereo not shown) [Example 67, 6-[5-[2-[(4-fluoro-1-methyl-6,7-dihydro-5H-cyclopenta[c]pyridin-6-yl)methylamino]ethyl]-2-oxo-1,3,4-oxadiazol-3-yl]-4H-1,4-benzoxazin-3-one] | 249 nM
5 | NC1c2cccc(Cl)c2CC1CNCCc1nn(-c2cnc3c(n2)NC(=O)CO3)c(=O)o1 (racemic) [Example 337, 6-[2-oxo-5-[2-[[rac-1,2-trans-1-amino-4-chloro-2,3-dihydro-1H-inden-2-yl]methylamino]ethyl]-1,3,4-oxadiazol-3-yl]-4H-pyrazino[2,3-b][1,4]oxazin-3-one; formic acid] | 1080 nM

Results, then the compound that gave them:

Row | IC50 | Compound
6 | 144 nM | N#CCOc1cc(F)c2c(c1)CC(CNCCC1CN(c3cnc4c(n3)NC(=O)CO4)C(=O)O1)C2 (stereo not shown) [Example 366, 2-[[7-fluoro-2-[[2-[2-oxo-3-(3-oxo-4H-pyrazino[2,3-b][1,4]oxazin-6-yl)-1,3-oxazolidin-5-yl]ethylamino]methyl]-2,3-dihydro-1H-inden-5-yl]oxy]acetonitrile; formic acid]
7 | 940 nM | O=C1COc2ccc(N3CC(CCNC4Cc5cccc(Cl)c5C4)OC3=O)nc2N1 (stereo not shown) [Example 3, 6-[5-[2-[(4-chloro-2,3-dihydro-1H-inden-2-yl)amino]ethyl]-2-oxo-1,3-oxazolidin-3-yl]-4H-pyrido[3,2-b][1,4]oxazin-3-one hydrochloride]
8 | < 97.7 nM | CC(N)COc1cc(F)c2c(c1)CC(CCN1CC3(C1)CN(c1cnc4c(n1)NC(=O)CO4)C(=O)O3)C2 (stereo not shown) [Example 327, 6-[2-[2-[6-(2-aminopropoxy)-4-fluoro-2,3-dihydro-1H-inden-2-yl]ethyl]-6-oxo-5-oxa-2,7-diazaspiro[3.4]octan-7-yl]-4H-pyrazino[2,3-b][1,4]oxazin-3-one]
9 | 202 nM | O=C1COc2ncc(N3CC(CCNCC4Cc5cc(OCCn6ccnn6)cc(F)c5C4)OC3=O)nc2N1 (stereo not shown) [Example 344, 6-[5-[2-[[4-fluoro-6-[2-(triazol-1-yl)ethoxy]-2,3-dihydro-1H-inden-2-yl]methylamino]ethyl]-2-oxo-1,3-oxazolidin-3-yl]-4H-pyrazino[2,3-b][1,4]oxazin-3-one; formic acid]

same assay, conditions: strain Escherichia coli ATCC 25922; 10-point broth dilution, optical density at 600 nm over 16 h; read-out: Escherichia coli growth inhibition IC50

Row | IC50 | Compound
10 | 904 nM | N#Cc1cccc2c1CC(CNCCC1OC(=O)N(c3ccc4c(n3)NC(=O)CO4)C1CN)C2 (racemic) [Example 149, 2-[[2-[rac-4,5-trans-4-(aminomethyl)-2-oxo-3-(3-oxo-4H-pyrido[3,2-b][1,4]oxazin-6-yl)-1,3-oxazolidin-5-yl]ethylamino]methyl]-2,3-dihydro-1H-indene-4-carbonitrile; formic acid]
